Consider one molecule from patent US20230312643A1, “PEPTIDE DERIVATIVE WITH COLLAGENASE INHIBITORY ACTIVITY, AND USE THEREOF” (SUNMARINE BIOTECH, priority 2020, published 2023).

One data set deals with T1, elastase (Sus scrofa, UniProt P00772).
T1 construct: purchased Invitrogen
Description: Elastase inhibitory activity (EnzChek Elastase Assay Kit, DQ elastin). In kind it is biochemical. Here is the method:
Elastase inhibitory activity was performed by purchasing EnzChek® Elastase Assay Kit (600 Assays) reagent from Invitrogen. First, DQ elastin stock solution (1 mg/ml) was prepared by adding 1.0 ml of DDW to 1 mg DQ elastin vial. The 18 ml of DDW was added to 2 ml of 10× reaction buffer, so as to dilute reaction buffer. Then, an elastase enzyme reagent was prepared, and diluted with reaction buffer to a final concentration of 0.2 U/ml as working solution. Three samples of 50 ? each were prepared in a 96-well plate. The 50 ? of reaction buffer was added to 50 ? of DQ elastin and sample blank, and 50 ? of working solution was added to a sample, which were then left in a light-blocked state at room temperature for about one hour, and then fluorescence intensity was measured at excitation wavelength 505 nm and emission wavelength 515 nm using ELISA plate reader (VICTOR X3™, PerkinElmer, US).
Copper peptide (Comparative Example 12) and EGCg (Comparative Example 13), which is widely used as a raw material for functional cosmetics, were prepared at the same concentration and used as a positive control.
EGCg (epigallocatechin gallate) is a kind of polyphenol, which is an extract of green tea leaves, and is used as a cosmetic raw material for anti-oxidation, inflammation reduction, and wrinkle alleviation, and Copper peptide is used as a raw material for promoting wound healing, strengthening skin elasticity, and increasing subcutaneous fat layer to suppress skin aging due to excellent skin regeneration ability.

Data set [1] can be described thus: HaCaT cytotoxicity test (MTS cell viability). To be noted: human, HaCaT cells (skin epidermal cells). Format: cell-based. The protocol:
HaCaT cells, skin epidermal cells (derived from human), were used. The medium was DMEM low (SH30021.01, HyClone™, Logan, UT, USA) medium containing 10% fetal bovine serum (FBS, Lonza, Valais, Switzerland) medium. The cell lines were cultured in an incubator adjusted to 95% humidity, 5% CO2 and 37° C., and at this time, a medium antibiotic (Penicillin streptomycin, Gibco, Calif., USA) was used to suppress contamination or proliferation of microorganisms. When the cells covered the dish about 80%, the cells were washed with phosphated-buffered saline-EDTA (PBS-EDTA), and then the cells attached to the bottom of the dish were detached by treating with 1 ml of 0.05% trypsin EDTA, and subjected to subculture. The medium was exchanged every 48 hours to culture the cells.
Cell viability was measured using MTS (CellTiter 96® AQueous One Solution Cell Proliferation Assay, Promega, USA) reagent. The cells were divided at a concentration of 1×10^4 cells/well in a 96-well plate and then stabilized for 24 hours in an incubator controlled to 95% humidity, 5% CO2 and 37° C. After that, the samples were treated for each concentration (table 1) and cultured for 24 hours in an incubator controlled to 95% humidity, 5% CO2 and 37° C. After the medium was removed, 9 ml of medium (DMEM low, free FBS) was added to 1 ml of the reagent and diluted, and then 100 ul of the diluted solution was treated per well. After the reaction at 37° C. for 60 minutes, absorbance was measured at 490 nm with microplate reader (Molecular Devices, VersaMax ELISA Microplate Reader, USA). Cell viability was represented by absorbance of a sample-treated group compared to a control group not treated with the sample.

Data set [2] can be described thus: HS68 cytotoxicity test (MTS cell viability). Format: cell-based. To be noted: human, HS68 cells (skin fibroblasts). The protocol: (§1) Skin fibroblast HS68 cells were used. The medium was DMEM high glucose (SH30243.01, HyClone™, Logan, UT, USA) medium containing 10% fetal bovine serum (FBS, Lonza, Valais, Switzerland) medium. The cell lines were cultured in an incubator adjusted to 95% humidity, 5% CO2 and 37° C., and at this time, a medium antibiotic (Penicillin streptomycin, Gibco, Calif., USA) was used to suppress contamination or proliferation of microorganisms.
(§2) Cell viability was measured using MTS (CellTiter 96® AQueous One Solution Cell Proliferation Assay, Promega, USA) reagent. The cells were divided at a concentration of 1×10^4 cells/well in a 96-well plate and then stabilized for 24 hours in an incubator controlled to 95% humidity, 5% CO2 and 37° C. After that, the samples were treated for each concentration and cultured for 24 hours in an incubator controlled to 95% j humidity, 5% CO2 and 37° C. After the medium was removed, 9 ml of medium (DMEM high, free FBS) was added to 1 ml of the reagent and diluted, and then 100 ul of the diluted solution was treated per well. After the reaction at 37° C. for 60 minutes, absorbance was measured at 490 nm with microplate reader (Molecular Devices, VersaMax ELISA Microplate Reader, USA). Cell viability was represented by absorbance of a sample-treated group compared to a control group not treated with the sample.

Another data set relates to HS68 cells. Description: HS68 cytotoxicity test (MTS cell viability). In kind it is cell-based. To be noted: HS68, 50 μg/ml, 24 hours. Here is the method:
as §1, §2

T1 sequence (P00772 27-266): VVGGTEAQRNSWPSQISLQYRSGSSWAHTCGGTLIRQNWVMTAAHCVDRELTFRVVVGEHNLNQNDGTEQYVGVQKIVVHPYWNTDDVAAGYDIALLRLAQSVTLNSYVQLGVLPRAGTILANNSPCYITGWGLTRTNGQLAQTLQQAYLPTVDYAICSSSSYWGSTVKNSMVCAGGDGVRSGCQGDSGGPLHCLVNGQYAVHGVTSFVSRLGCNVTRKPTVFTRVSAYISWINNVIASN

For the molecule `CN1CCC[C@H]1C(=O)NCC(=O)N[C@@H](CC(N)=O)C(=O)O` [Me-PGN], on elastase (0.02 mg/ml), the inhibition (commonly the relative decrease from the control value, in per cent) at 20 µg/mL came out at 5.2 ± 1.7%. Also, the inhibition at 40 µg/mL on elastase (0.04 mg/ml) stood at 6.9 ± 1.8%. Further, at 60 µg/mL the inhibition against elastase (0.06 mg/ml) was 9.9 ± 1.5%. Also, at 100 µg/mL the inhibition against elastase (0.1 mg/ml) was 11.2 ± 1.1%. At elastase (1 mg/ml), the inhibition at 1000 µg/mL is 11.2%. In addition, the viability (usually a read-out of living cells in per cent, often relative to untreated cells) at 24 h, 1 µg/mL was 125 ± 6.1% in data set [1] (1 μg/ml) and 103 ± 3.9% in data set [2] (HS68, 1 μg/ml). Besides, the viability at 24 h, 10 µg/mL in data set [1] (10 μg/ml) was 127 ± 6.5%; in data set [2] (HS68, 10 μg/ml) it was 104 ± 4.5%. Further, in data set [1] (50 μg/ml), the viability at 24 h, 50 µg/mL worked out at 122 ± 3.7%. Further, the viability at 24 h, 100 µg/mL in data set [1] (100 μg/ml) is 126 ± 14.8%; in data set [2] (HS68, 100 μg/ml), 104 ± 5.6%. In addition, in the data set on HS68 cells, the Cell viability amounted to 103 ± 3.4%.
